We go through 1 molecule from PMC11960782 (Nanoscale Advances, 2025).

Molecules are shown by their SMILES. Residues, ends and D or L forms follow the SMILES beside them.

The subject of data set [1] is DC2.4 cells.
For data set [2] the following is noted: mouse, in vivo.

In the case of `CCCCCCCCCCCCCCCC(=O)N[C@H](C(=O)N[C@H](C(=O)N[C@H](C(=O)N[C@@H](C)C(=O)N[C@@H](C)C(=O)N[C@@H](C)C(=O)N[C@@H](CCCCN)C(=O)N[C@@H](CCCCN)C(=O)N[C@@H](CCCCN)C(=O)NCC(=O)NCC(=O)NCC(=O)NCC(=O)N[C@@H](CO)C(=O)N[C@@H](CC(C)C)C(=O)N[C@@H](CC(C)C)C(=O)N[C@H](C(=O)N[C@@H](CCC(=O)O)C(=O)N[C@H](C(=O)N[C@@H](CCC(=O)O)C(=O)N[C@H](C(=O)N1CCC[C@H]1C(=O)N[C@H](C(=O)N[C@@H](CCCNC(=N)N)C(=O)N[C@@H](CC(N)=O)C(=O)N[C@@H](CCC(=O)O)C(=O)N[C@@H](Cc1c[nH]c2ccccc12)C(=O)NCC(=O)N[C@@H](CO)C(=O)N[C@@H](CCCNC(=N)N)C(=O)N[C@@H](CO)C(=O)N[C@@H](CC(N)=O)C(=O)NCC(=O)N[C@@H](CO)C(=O)N[C@@H](CO)C(=O)N[C@@H](CC(=O)O)C(=O)O)[C@@H](C)CC)[C@@H](C)O)C(C)C)[C@@H](C)O)C(C)C)C(C)C)C(C)C` [PA–M2e] (HELM PEPTIDE1{[CCCCCCCCCCCCCCCC(=O)[*:2]].V.V.V.A.A.A.K.K.K.G.G.G.G.S.L.L.T.E.V.E.T.P.I.R.N.E.W.G.S.R.S.N.G.S.S.D}$$$$V2.0), in data set [1], the “cell viability (metabolic activity, resazurin reduction)” value is reported as “did not significantly decrease cell viability” and the “live–dead cell assay by confocal microscopy” value is recorded as “confirmed the biocompatibility”. The “weight loss upon immunization” value in data set [2] is reported as “none of the mice experienced weight loss”.
